These results are taken from patent US20140255432A1, “SILVESTROL, SILVESTROL ANALOGS AND USES THEREOF” (priority 2011, published 2014).

One series deals with NK cells against LCL. Briefly: Antibody-dependent cell-mediated cytotoxicity (ADCC) assay of NK cells with rituximab. Type of series: cell-based, human. On the procedure:
Non-radioactive flow cytometry-based cytotoxicity assays have been described previously (Godoy-Ramirez 2005; Helguera 2011). Co-cultures of PBMC and irradiated LCL were grown in the presence or absence of silvestrol for 14 d and collected. Fresh autologous LCL cells were stained with 200 nM carboxyfluorescein diacetate succinimidyl ester (CFSE) (CellTrace™, Invitrogen) for 15 min at 25° C. prior to being mixed with effectors from the irradiated co-cultures at an effector:target (E:T) ratio of 20:1 for 4 hr at 37° C. After the incubation, cells were stained with 7-aminoactinomycin D (7AAD) (BD Biosciences, San Diego, Calif.) and washed. Cytotoxicity was measured by gating on the CFSE-positive events and measuring the 7AAD-positive cells. (See FIGS. 31 and 32). For antibody-dependent cell-mediated cytotoxicity (ADCC) assays the same technique was used; however, the co-cultured effectors were natural killer (NK) cell-enriched and were incubated in the presence or absence of 5 μg/mL rituximab or herceptin (negative control) (Genentech, Inc., South San Francisco, Calif.) for 4 hr at 37° C.
Next, antibody-dependent cell-mediated cytotoxicity (ADCC) assays were utilized to measure the innate immune response of NK cells to LCL in the presence of silvestrol. […] Fresh CFSE-labeled LCL targets and autologous NK cells were incubated with the monoclonal antibodies rituximab (anti-CD20, expressed on LCL) or herceptin (anti-HER2, not expressed on immune cells). After 4 hr, ADCC was evaluated using CFSE and 7-AAD staining as described above. Specifically, cytotoxicity was measured by CFSE^+/7AAD^+ events. Data are shown relative to the positive control (effectors+targets+ritux) and are the averages of three individual experiments. Bars show −/+ standard deviation.
To determine the acute effect of silvestrol on ADCC, fresh (non-autologous) NK cells were obtained from enriched leukocyte products, incubated 18 hr with or without 10 nM silvestrol, then washed and mixed with CFSE-stained LCL. […]

Series [1] concerns EBV LMP-1 oncogene transcript. The series is described as follows: EBV LMP-1 oncogene transcript expression in LCL. It counts as cell-based, Epstein-Barr virus. Conditions: three cell lines; days 1, 3, 5 (FIG. 46). An excerpt:
(§1) FIG. 41 presents data regarding NK cytotoxicity of K562 cells. […] FIG. 42 presents data regarding the cytotoxicity of LCLs pretreated with BZLF 1. […] BZLF1 antigen pulsed LCLs promoted enhanced killing in untreated and silvestrol-treated CTLs. FIG. 43 presents data relating to CD4 IFNgamma release with LCL pretreated with BZLF1. […] FIG. 44 presents data relating to CD4 IFNgamma release with LCL pretreated with BZLF 1. […] FIG. 45 presents data relating to interleukin-6 induction by silvestrol. […] FIG. 46 presents data relating to a change in LMP-1 expression following silvestrol treatment. […] Three cell lines were examined on days 1, 3, and 5 following treatment. FIG. 47 presents data relating to a change in EBNA1 expression following silvestrol treatment. Three cell lines were examined on days 1, 3, and 5 following treatment.

The next series concerns IFNgamma. The series is described as follows: IFNgamma release / production of immune effector cells. It counts as cell-based, human. As to the method: CoCx were incubated in the presence of 10 U/ml IL-2 and given a single dose of 0 (vehicle only), 2, 5, or 10 nM silvestrol. At day 14 cells were (A) stimulated non-specifically by addition of 12-O-tetradecanoylphorbol-13-acetate (TPA) and ionomycin (INO) to assay for the ability to release interferon gamma (IFNγ) or (B) by the addition of equal numbers autologous LCL to measure cell mediated response to antigen-induced IFNγ production. IFNγ production was measured by […] flow following four hour stimulation.
as §1

For series [2], the system named is CD3-/CD19+ LCL and immune effector subsets. Briefly: Non-irradiated LCL / autologous PBMC co-cultures, flow cytometry. It counts as cell-based, human. As to the method:
Lymphoblastoid cell lines (LCL) were derived in vivo by engrafting severe combined immune-deficient (SCID) mice (Taconic, Hudson N.Y.) with human peripheral blood mononuclear cells (PBMC) from a healthy EBV-positive donor as described (Rowe 1991; Baiocchi 1994). Co-cultures (Cocx) were created by mixing 5×10^4 LCL (either non-irradiated or irradiated with 14000 rad) per well with equal numbers of autologous PBMC in 96-well plates. Cultures were grown in the presence of 10 U/mL IL-2 and were given a single dose of silvestrol and cultured for 10-14 days.
Cells from irradiated or non-irradiated co-cultures were co-stained with LIVE/DEAD cell stain (Invitrogen, Grand Island, N.Y.) and hu-CD3-APC and either hu-CD4-PE, hu-CD-8-PE, hu-CD19-PE (BD Biosciences, San Diego, Calif.), or hu-CD56-PE (Beckman Coulter, Brea, Calif.). Live events were gathered by gating on cells negative for the LIVE/DEAD stain on an FC500 cytometer (Beckman Coulter). Cell viability was also measured by flow cytometry at 24, 72, and 120 hr using annexin-V-FITC and propidium iodide (PI) according to the manufacturer's instructions (BD Biosciences).
It was next examined how viable, non-irradiated LCL interacted with immune effectors in the presence of silvestrol, a situation closer to conditions that occur in vivo. CoCx were incubated in the presence of 10 U/mL IL-2. Specifically, LCL from three separate donors were incubated at a ratio of 1:1 with their respective autologous PBMCs for 10 days after adding a single dose of 0, 2, 5, or 10 nM silvestrol. On day 10, flow cytometric analysis was conducted. Live events were gathered by gating on cells negative for the LIVE/DEAD stain. Data are expressed as percentage of total viable population for (A) CD3^−/CD19^+ LCLs; (B) CD3^+/C4^+ helper T cells; (C) CD3^+/CD8^+ CTLs; or (D) CD3^−/CD56^+ NK cells. Left untreated, the transformed LCL (CD3^−/CD19^+) cells proliferated and matched the expansion of effectors lymphocyte subsets, approximately maintaining the 1:1 ratio (FIGS. 34A and 34E). […] Similarly, CD4^+ T cell percentages were reduced with increasing silvestrol concentrations (FIG. 34B). In contrast, CD8+ T cells and CD56^+ NK cell populations expanded in the presence of silvestrol, both as percent of population and absolute numbers (FIGS. 34C-34D).
In general terms: Flow cytometry measures light scatter and fluorescence of single cells or particles in a stream.

The mark [3] stands for this setting: single dose 2, 5, 10 nM, day 10, non-irradiated LCL.

The structures appear in SMILES notation.

In the case of `COC(=O)[C@H]1[C@@H](O)[C@@]2(O)c3c(OC)cc(O[C@@H]4O[C@@H]([C@H](O)CO)CO[C@H]4OC)cc3O[C@@]2(c2ccc(OC)cc2)[C@@H]1c1ccccc1` [silvestrol], the “ADCC activity of NK cells incubated in media vs. silvestrol” value in the series with NK cells against LCL (10 nM, 24 hr pretreatment, DC9 LCLs (FIG. 19)) was “equivalent ADCC activity”. The “ADCC activity of freshly isolated (non-autologous) NK cells” value with NK cells against LCL (18 hr pre-incubation with 10 nM, p=0.854) is “no observable effect”. Besides, in the series on NK cells against LCL (autologous NK cells, 10 nM for 14 days, p=0.838), the “rituximab-dependent cytotoxic activity of NK cells, expanded with vs. without silvestrol” value was “similar”. In series [1], the “expression of the EBV LMP-1 oncogene transcript” value was “decreased”. Besides, in the series with IFNgamma (10 nM, LCL pretreated with BZLF1 (FIG. 43)), the “IFNgamma release of CD4+ T cells” value is “not adversely affected”. Further, the “IFN production of immune effector subsets against irradiated autologous EBV+ LCL (DC9)” value in the series on IFNgamma (low concentrations (2-10 nM) (FIG. 18)) was “not abrogated”. Moreover, the “CD19+ B cells in non-irradiated co-cultures” value in series [2] (2, 5, 10 nM, 14 days of culture (FIG. 16)) was “dose dependent loss”. Also, in series [2] (setting [3]), the “CD4+ T cell percentages” value is “reduced”; the “CD8+ T cell population (percent and absolute numbers)” value is listed as “expanded”; the “CD56+ NK cell population (percent and absolute numbers)” value is on record as “expanded”; the “viable EBV-LCL (CD3-/CD19+)” value was “dose-dependent ablation”.
